Measured values as given in US5208244A, “Method of selectively inhibiting calcium-independent myocardial phospholipase A2” (priority 1990, dated 1993).
pIC50: −log10 of the molar value. Counter-ions that a name gives are not always drawn. Like-named read-outs stand apart in the source and are kept apart here.

Key:
porcine pancreatic PLA2 = biological target: T1, porcine pancreatic PLA2 (Sus scrofa, UniProt P00592); assay: Porcine pancreatic PLA2 assay ([14C]-oleate labelled E. coli); assay type: biochemical; conditions: 10 mM CaCl2, pH 8.0; > : inhibition but not enough for an IC50; >> : little or no inhibition at highest concentration; read-out: Porcine Pancr. PLA2 IC50
T1 construct: purchased Sigma (St. Louis); host or cells: porcine pancreas
T1 sequence (P00592 23-146): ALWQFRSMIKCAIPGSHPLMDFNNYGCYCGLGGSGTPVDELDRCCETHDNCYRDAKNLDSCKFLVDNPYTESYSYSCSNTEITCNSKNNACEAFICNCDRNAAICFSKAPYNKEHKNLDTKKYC
From the text: (§1) Several other PLA2 assays were utilized in order to gain some measure of the selectivity of the inhibitors of calcium-independent myocardial PLA2. Specifically, three other calcium-dependent mammalian PLA2 assays are used: (1) sheep platelet PLA2, (2) human synovial fluid PLA2, and (3) porcine pancreatic PLA2. The PLA2 enzymes represent different groups of PLA2 enzymes. Myocardial PLA2, platelet PLA2, and secreted PLA2 enzymes (human synovial fluid PLA2 and porcine pancreatic PLA2) have very different calcium requirements, which may be typical of their respective classes.
Purified porcine pancreatic PLA2 was obtained from Sigma (St. Louis, Miss.). PLA2 activity was measured by using [^14 C]-oleate labelled autoclaved E. coli as described by Franson, Patriarca and Elsbach (referenced above). The assay was performed at 37° C. for 5 min in a final volume of 100 μL Tris-HCl buffer (100
mM, pH 8.0) containing 1 mM EDTA, 10 mM CaCl2, and E. coli (containing 10 nmol phospholipid). The test compound or control vehicle was preincubated with PLA2 for 5 min, followed by adding E. coli to initiate the reaction. The reaction was terminated by adding 2 mL tetrahydrofuran. The reaction product, [^14 C]-oleic acid, was isolated using a 1 mL Bond Elute--NH2 column and counted by liquid scintillation spectrometry.
(§2) Two greater than symbols (>>) indicate little or no inhibition at the highest concentration used. Activation of an enzyme is indicated by a +X% which gave that activation of X%.

[1] = system: calcium-independent canine myocardial PLA2; assay: Inhibition of purified calcium-independent canine myocardial PLA2 (radiolabeled fatty acid release); assay type: biochemical; conditions: for pIC50: purified enzyme, 6.4 mM EGTA, pH 7.0, 5 min preincubation 25° C., 5 min at 37° C., read-out: Canine Heart PLA2 IC50; for selectivity for calcium-independent canine myocardial PLA2 over the calcium-dependent PLA2 enzymes: versus calcium-dependent PLA2 enzymes
Experimental: This assay consists of determining the amount of radiolabeled fatty acid which is liberated from the radiolabeled phospholipid substrate by purified calcium-independent canine myocardial PLA2 in the presence of varying concentrations of the inhibitor. […] This concentration is defined as the IC50.
Appropriate controls were performed in the absence of test compound. Catalysis was initiated by injection of 1 μM radiolabeled substrate (1-O-(Z)-(1'-hexadecenyl)-2-[9,10-^3 H]-oleoyl-3-phosphorylcholine). After a 5 min incubation at 37° C., reaction products were extracted with n-butanol, separated by thin layer chromatography, and quantified by scintillation spectrometry.
as §2

sheep platelet PLA2 = assay: Calcium-dependent sheep platelet PLA2 assay; assay type: biochemical; conditions: 1 μM CaCl2, pH 7.2; > : inhibition observed but not enough for an IC50 at highest concentration
From the text: as §1
Homogeneous sheep platelet cytosolic PLA2 was prepared as described by Loeb, L. A., and Gross, R. W. J. Biol. Chem. 261, 10467-10470 (1986). The purified calcium-dependent platelet PLA2 was preincubated in 70 mM Tris-Cl (pH 7.2) containing 1 μM CaCl2 and test compound for 5 min at 25° C. Catalysis was initiated by injection 1 μM radiolabeled substrate (1-O-(Z)-(1'-hexadecenyl)-2-[9,10-^3 H]-oleoyl-3-phosphorylcholine). After a 10 min incubation period at 37° C., reaction products were extracted with n-butanol, separated by thin layer chromatography, and quantified by scintillation spectrometry. PLA2 activity was compared in the presence and absence of test compound and the IC50 was determined.
as §2

[2] = biological target: T2, human synovial fluid PLA2 (Homo sapiens, UniProt P14555); assay: Human synovial fluid PLA2 assay ([14C]-oleate labelled E. coli); assay type: biochemical; conditions: 5 mM CaCl2, pH 7.0; > : inhibition but not enough for an IC50; >> : little or no inhibition at highest concentration; read-out: HSF PLA2 IC50
T2 construct: Purified human synovial fluid PLA2; from tissue; host or cells: human synovial fluid; obtained from R. C; Franson (Medical College of Virginia)
T2 sequence (P14555 21-144): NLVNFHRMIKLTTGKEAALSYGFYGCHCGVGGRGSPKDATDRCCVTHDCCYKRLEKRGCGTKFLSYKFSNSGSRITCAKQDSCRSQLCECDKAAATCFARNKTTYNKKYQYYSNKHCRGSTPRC
From the text: as §1
Purified human synovial fluid PLA2 (purified by the procedure of Fawzy, A. A. and Franson, R. C. Biophys. J. 49, 533a [1986]) was obtained from R. C. Franson (Medical College of Virginia, Richmond, Va.). PLA2 activity was measured by using [^14 C]-oleate labelled autoclaved E. coli as substrate as described by Franson, R. C., Patriarca, P., and Elsbach, P. J. Lipid Res. 15, 380-388 (1974). The assay was performed at 37° C. for 30 min in a final volume of 100 μL 50 mM Hepes buffer (pH 7.0) containing 150 mM NaCl, 5 mM CaCl2, and E. coli cells (corresponding to 10 nmol phospholipid). The test compound or control vehicle was preincubated with PLA2 for 5 min, followed by adding E. coli to initiate the reaction. The reaction was terminated by adding 2 mL tetrahydrofuran. The reaction product, [^14 C]-oleic acid, was isolated using a 1 mL Bond Elute--NH2 column and counted by liquid scintillation spectrometry.
as §2

HL-60 cells = assay: HL-60 cell assay for LTB4 and PGE2 production (calcium ionophore A23187 induced); assay type: cell-based; conditions: for pIC50: Homo sapiens, HL-60, A23187 5×10^-6 M, > : inhibition but not enough for an IC50
Experimental: An additional whole cell assay was also performed. In this assay, HL-60 cells are induced with the calcium ionophore A23187 in the presence of varying amounts of inhibitor, and the amounts of the prostaglandin E2 (PGE2) and leukotriene B4 (LTB4) which form are measured. Calcium ionophore A23187 activates a calcium-dependent PLA2 which leads to the enhanced production of the arachidonic acid metabolites PGE2 and LTB4. The concentrations of inhibitor which decrease the production of PGE2 and LTB4 by 50% relative to controls are expressed as IC50 values.
HL-60 Cell Assay for LTB4 and PGE2 Production
HL-60 cells grown exponentially in culture were induced to differentiate into granulocytes by a four day incubation with 0.8% (v/v) N,N-dimethylformamide. Prior to assay, differentiated HL-60 cells were washed once with Hanks' balanced salt solution containing 0.35 mg/mL sodium bicarbonate and 10 mM Hepes, pH 7.3 (HBSS) and resuspended in HBSS at a 3×10^6 cells/mL concentration. DMSO or test compounds solubilized in DMSO were added at 1:100 dilution to 1.0 mL HL-60 cell suspensions (3×10^6 cells) and preincubated at 37° C. for 10 min in a shaking water bath. After an additional 5 min incubation with 5×10^-6 M calcium ionophore, A23187 (Calbiochem, La Jolla, Calif.), the cells were centrifuged at 12,800×g for 15 seconds and the supernatant (0.8 mL) removed and stored at -20° C. for LTB4 and PGE2 quantitation by radioimmunoassay (kits obtained from Amersham, United Kingdom and NEN Research Products, N. Billerica, Mass.).
as §2

rat neonatal myocytes = conditions: cited from earlier work
[3] = LTB4 production, read-out: HL-60 LTB4 IC50
[4] = PGE2 production, >> : little or no inhibition at highest concentration, read-out: HL-60 PGE2 IC50

| pIC50 (porcine pancreatic PLA2) | pIC50 [1] | pIC50 (sheep platelet PLA2) | pIC50 [2] | pIC50 (HL-60 cells; [3]) | pIC50 (HL-60 cells; [4]) | Structure (SMILES) | potency against canine myocardial PLA2 (in words) [1] | also measured |
| --- | --- | --- | --- | --- | --- | --- | --- | --- |
| < 4.00 | 7.51 | 4.00 | < 4.00 | 4.93 | < 4.00 | O=C1O/C(=C/I)CCC1c1cccc2ccccc12 (centres unmarked) [Example 1, Tetrahydro-(E)-6-(iodomethylene)-3-(1-naphthalenyl)-2H-pyran-2-one] | most potent compound known against calcium-independent canine myocardial PLA2 | selectivity for calcium-independent canine myocardial PLA2 over the calcium-dependent PLA2 enzymes [1]: over 3200 -fold; HL-60 PGE2 activation (+X%) (HL-60 cells; PGE2 production): +300% |
| 4.77 | – | 4.42 | 4.28 | < 5.00 | < 5.00 | C#C/C=C1\CCC(c2cccc3ccccc23)C(=O)O1 (centres unmarked) [Example 2, Tetrahydro-3-(1-Naphthalenyl)-(E)-6-(prop-2-ynylidene)-2H-pyran-2-one] | – | – |
| – | 6.72 | – | – | – | – | O=C1O/C(=C\I)CCC1c1cccc2ccccc12 (centres unmarked) [Example 4, Tetrahydro-(Z)-6-(iodomethylene)-3-(1-naphthalenyl)-2H-pyran-2-one] | potency drops off by almost an order of magnitude | – |
| – | 4.66 | – | – | – | – | C=C1CCC(c2cccc3ccccc23)C(=O)O1 (centres unmarked) [Example 7, Tetrahydro-6-methylene-3-(1-naphthalenyl)-2H-pyran-2-one] | loss of more than two orders of magnitude in potency | – |

More lines, now with the values behind:

| Structure (SMILES) | pIC50 (porcine pancreatic PLA2) | pIC50 [1] | pIC50 (sheep platelet PLA2) | pIC50 [2] | pIC50 (HL-60 cells; [3]) | pIC50 (HL-60 cells; [4]) | potency against canine myocardial PLA2 (in words) [1] | also measured |
| --- | --- | --- | --- | --- | --- | --- | --- | --- |
| O=C1O/C(=C/Br)CCC1c1cccc2ccccc12 (centres unmarked) [Example 3, (E)-6-(bromomethylene)tetrahydro-3-(1-naphthalenyl)-2H-pyran-2-one] | < 4.00 | 6.85 | 4.14 | < 4.00 | < 5.00 | < 5.00 | extremely potent inhibitors of canine myocardial PLA2 | selectivity for calcium-independent canine myocardial PLA2 over the calcium-dependent PLA2 enzymes [1]: over 500 -fold; HL-60 PGE2 activation (+X%) (HL-60 cells; PGE2 production): +91% |
| O=C1O/C(=C/Br)CCC1c1ccccc1 (centres unmarked) [Example 5, (E)-6-(Bromomethylene)tetrahydro-3-phenyl-2H-pyran-2-one] | < 4.00 | 6.60 | < 4.00 | < 4.00 | 5.96 | < 4.00 | – | selectivity for calcium-independent canine myocardial PLA2 over the calcium-dependent PLA2 enzymes [1]: over 400 -fold; HL-60 PGE2 activation (+X%) (HL-60 cells; PGE2 production): +63% |
| O=C1O/C(=C/Br)CC1c1cccc2ccccc12 (centres unmarked) [Example 6, (E)-5-(Bromomethylene)tetrahydro-3-(1-naphthalenyl)-2(3H)-furanone] | – | 5.77 | – | – | – | – | – | – |
| O=C1O/C(=C/Br)CCC1Oc1ccccc1 (centres unmarked) [Example 8, (E)-6-(Bromomethylene)tetrahydro-3-phenoxy-2H-pyran-2-one] | – | 4.68 | – | – | – | – | – | – |
| O=C1CCC/C(=C\Br)O1 [Example 9, (E)-6-(Bromomethylene)tetrahydro-2H-pyran-2-one] | – | – | – | – | – | – | – | Canine Heart PLA2 inhibition at 100 μM ([1]; 100 μM, printed in the IC50 column with footnote 4): 28% |
| O=C1O/C(=C/Br)CCC1c1cccnc1 (centres unmarked) [Example 10, (E)-6-(Bromomethylene)tetrahydro-3-(3-pyridyl)-2H-pyran-2-one Hydrochloride] | – | 4.12 | – | – | – | – | – | – |
| COC1=CCC2=C(CCC3C2CC[C@@]2(C)C3CC[C@@H]2N(C)CCCN(C)C)C1 (some centres unmarked) [U26,384] | – | – | – | – | – | – | – | release of arachidonic acid, phospholipid degradation, sarcolemmal membrane defects and release of creatine kinase (rat neonatal myocytes; induced by iodoacetate): prevented the release of arachidonic acid, phospholipid degradation, sarcolemmal membrane defects and the release of creatine kinase |
| O=C(O)CI [iodoacetate] | – | – | – | – | – | – | – | ATP levels, release of arachidonic acid and morphological alterations of myocytes (rat neonatal myocytes; rat neonatal myocytes): lowers the levels of ATP which results in the release of arachidonic acid and morphological alterations of the myocytes |
